# Test: recombinant UMI read abundance after kanamycin selection (control-corrected) (log10(CPM+1)); higher = more efficient recombination; extreme values may be limits of the assay; sequences stand for … in AGTGCAGAGAAAATCGGCCAGTTTTCTCTGCCTGCAGTCCGCATGCCGTGGGACCCCTTGGGTTCTAACCTGTTGCCTAGATTTATGCAGCGGACTGCCTTTCTCCCAAAGTGATAAACCGG…AGGTTGGTTTCACT; site = the 11-nt donor
# Procedure, shortened: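 Under IPTG (0.07 mM) plus kanamycin, or without selection, Escherichia coli carrying a UMI-tagged donor and donor-binding-loop pair library and a target plasmid for the IS621 bridge recombinase were plated in two replicates. Recombinant UMIs were PCR-amplified across the donor–target junction and sequenced. Counts were converted to CPM, averaged over replicates, scaled by control-derived factors and reported as log10(CPM+1).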
# 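Also: IS621 bridge recombinase in Escherichia coli cells against a fixed T5 target plasmid.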
row,Sequence,recombinant UMI read abundance (log10)
1,CCTTTACCATGGACCGGTTTTCCCGGTAATCCGTATTTGAA (site CCTTTACCTTT),0.019
2,CCTTTCTCATGGACCGGTTTTCCCGGTAATCCGTATTTGCG (site CCTTTCTCTCG),0
3,CCTTTGCCATGGACCGGTTTTCCCGGTAATCCGTATTTGTG (site CCTTTGCCTCA),0.00549
4,CGAACATCATGGACCGGTTTTCCCGGTAATCCGTATTTGCC (site CGAACATCTGG),0.671
5,CGAACATCATGGACCGGTTTTCCCGGTAATCCGTATTTGCC (site CGATCATCTAG),0
6,CGAACATCATGGACCGGTTTTCCCGGTAATCCGTATTTGCT (site CGAACATCTAG),2.13
7,CGAACATCATGGACCGGTTTTCCCGGTAATCCGTATTTGCT (site CGACCATCTAG),0.469
8,CGAACATCATGGACCGGTTTTCCCGGTAATCCGTATTTGCT (site CGAGCATCTAG),1.39
9,CGAACATCATGGACCGGTTTTCCCGGTAATCCGTATTTGCT (site CGATCATCTAG),0
10,CGAACATCATGGACCGGTTTTCCCGGTAATCCGTATTTGCT (site CGCACATCTAG),0
11,CGAACATCATGGACCGGTTTTCCCGGTAATCCGTATTTGCT (site CGGACATCTAG),0.583
12,CGAACATCATGGACCGGTTTTCCCGGTAATCCGTATTTGCT (site CGTACATCTAG),0
13,CGAACTACATGGACCGGTTTTCCCGGTAATCCGTATTTGAG (site CGAACTACTCT),1.95
14,CGAAGCCCATGGACCGGTTTTCCCGGTAATCCGTATTTGAT (site CGAAGCCCTAT),1.22
15,CGACAATCATGGACCGGTTTTCCCGGTAATCCGTATTTGCT (site CGACAATCTAG),2.77
16,CGACAATCATGGACCGGTTTTCCCGGTAATCCGTATTTGCT (site CGATCATCTAG),0
17,CGACATACATGGACCGGTTTTCCCGGTAATCCGTATTTGCG (site CGACATACTCG),2.76
18,CGACCATCATGGACCGGTTTTCCCGGTAATCCGTATTTGCG (site CGACCATCTCG),2.23
19,CGACCATCATGGACCGGTTTTCCCGGTAATCCGTATTTGCG (site CGATCATCTAG),0
20,CGACCCACATGGACCGGTTTTCCCGGTAATCCGTATTTGGT (site CGACCCACTAC),1.23
21,CGACCGACATGGACCGGTTTTCCCGGTAATCCGTATTTGTT (site CGAACGACTAA),0.0187
22,CGACCGACATGGACCGGTTTTCCCGGTAATCCGTATTTGTT (site CGACCGACTAA),0.195
23,CGACCGACATGGACCGGTTTTCCCGGTAATCCGTATTTGTT (site CGAGCGACTAA),0.00884
24,CGACCGACATGGACCGGTTTTCCCGGTAATCCGTATTTGTT (site CGATCGACTAA),0.00843
25,CGACGACCATGGACCGGTTTTCCCGGTAATCCGTATTTGGG (site CGAAGACCTCC),0.0167

row,Sequence,recombinant UMI read abundance (log10)
1,CGACGACCATGGACCGGTTTTCCCGGTAATCCGTATTTGGG (site CGACGACCTCC),0.0126
2,CGACGACCATGGACCGGTTTTCCCGGTAATCCGTATTTGGG (site CGAGGACCTCC),0.0314
3,CGACGACCATGGACCGGTTTTCCCGGTAATCCGTATTTGGG (site CGATGACCTCC),0.0338
4,CGACGAGCATGGACCGGTTTTCCCGGTAATCCGTATTTGGG (site ACGTCGACTTT),0.00438
5,CGACTGGCATGGACCGGTTTTCCCGGTAATCCGTATTTGTA (site CGACTGGCTTA),1.65
6,CGAGATCCATGGACCGGTTTTCCCGGTAATCCGTATTTGTT (site CGAGATCCTAA),1.4
7,CGAGATCCATGGACCGGTTTTCCCGGTAATCCGTATTTGTT (site CGGAATCCTAA),0
8,CGAGCACCATGGACCGGTTTTCCCGGTAATCCGTATTTGGG (site CGAGAACCTCC),0.00342
9,CGAGCACCATGGACCGGTTTTCCCGGTAATCCGTATTTGGG (site CGAGCACCTCC),0.0175
10,CGAGCACCATGGACCGGTTTTCCCGGTAATCCGTATTTGGG (site CGAGGACCTCC),0.0108
11,CGAGCACCATGGACCGGTTTTCCCGGTAATCCGTATTTGGG (site CGAGTACCTCC),0.0136
12,CGAGCAGCATGGACCGGTTTTCCCGGTAATCCGTATTTGCC (site CGAGCAGCTGG),2.69
13,CGAGCATCATGGACCGGTTTTCCCGGTAATCCGTATTTGGT (site CGAGCATCTAC),2.34
14,CGAGCCTCATGGACCGGTTTTCCCGGTAATCCGTATTTGCG (site CGAGCCTCTCG),2.41
15,CGAGCGACATGGACCGGTTTTCCCGGTAATCCGTATTTGAA (site CGAGCGACTTT),1.74
16,CGAGCTTCATGGACCGGTTTTCCCGGTAATCCGTATTTGCT (site CGAGCTTCTAG),1.85
17,CGAGCTTCATGGACCGGTTTTCCCGGTAATCCGTATTTGCT (site CGATCATCTAG),0
18,CGAGGGACATGGACCGGTTTTCCCGGTAATCCGTATTTGTC (site CGAGGGACTGA),2.59
19,CGAGTACCATGGACCGGTTTTCCCGGTAATCCGTATTTGAC (site CGAGTACCTGT),0
20,CGAGTACCATGGACCGGTTTTCCCGGTAATCCGTATTTGAC (site CTAGTATCTGT),0
21,CGAGTATCATGGACCGGTTTTCCCGGTAATCCGTATTTGAC (site CAAGTATCTGT),2.57
22,CGAGTATCATGGACCGGTTTTCCCGGTAATCCGTATTTGAC (site CCAGTATCTGT),1.99
23,CGAGTATCATGGACCGGTTTTCCCGGTAATCCGTATTTGAC (site CGAGTATCTGT),3.24
24,CGAGTATCATGGACCGGTTTTCCCGGTAATCCGTATTTGAC (site CTAGTATCTGT),2.01
25,CGAGTATCATGGACCGGTTTTCCCGGTAATCCGTATTTGCT (site CGAGTATCTAG),2.71

row,Sequence,recombinant UMI read abundance (log10)
1,CGAGTATCATGGACCGGTTTTCCCGGTAATCCGTATTTGCT (site CGATCATCTAG),0
2,CGAGTGGCATGGACCGGTTTTCCCGGTAATCCGTATTTGGT (site AGAGTGGCTAC),0.574
3,CGAGTGGCATGGACCGGTTTTCCCGGTAATCCGTATTTGGT (site CGAGTGGCTAC),1.1
4,CGAGTGGCATGGACCGGTTTTCCCGGTAATCCGTATTTGGT (site GGAGTGGCTAC),0.0253
5,CGAGTGGCATGGACCGGTTTTCCCGGTAATCCGTATTTGGT (site TGAGTGGCTAC),0.0187
6,CGAGTGTCATGGACCGGTTTTCCCGGTAATCCGTATTTGAC (site CGAGTGTCTGT),2.13
7,CGAGTGTCATGGACCGGTTTTCCCGGTAATCCGTATTTGAC (site CTAGTATCTGT),0.545
8,CGATAAACATGGACCGGTTTTCCCGGTAATCCGTATTTGCG (site CGATAAACTCG),2.63
9,CGATAATCATGGACCGGTTTTCCCGGTAATCCGTATTTGCT (site CGATAATCTAG),2.99
10,CGATAATCATGGACCGGTTTTCCCGGTAATCCGTATTTGCT (site CGATCATCTAG),0
11,CGATAATCATGGACCGGTTTTCCCGGTAATCCGTATTTGCT (site CGATGATCTAG),0
12,CGATAATCATGGACCGGTTTTCCCGGTAATCCGTATTTGCT (site CGATTATCTAG),0.415
13,CGATAGACATGGACCGGTTTTCCCGGTAATCCGTATTTGAG (site CGATAGACTCT),2.32
14,CGATAGACATGGACCGGTTTTCCCGGTAATCCGTATTTGAG (site CGCTAGACTCT),0.00552
15,CGATAGACATGGACCGGTTTTCCCGGTAATCCGTATTTGAG (site CGGTAGACTCT),0.902
16,CGATAGACATGGACCGGTTTTCCCGGTAATCCGTATTTGAG (site CGTTAGACTCT),0.979
17,CGATAGACATGGACCGGTTTTCCCGGTAATCCGTATTTGTT (site CGATAGACTAA),2
18,CGATAGACATGGACCGGTTTTCCCGGTAATCCGTATTTGTT (site CGATCGACTAA),0.04
19,CGATAGACATGGACCGGTTTTCCCGGTAATCCGTATTTGTT (site CGATGGACTAA),0.0144
20,CGATAGACATGGACCGGTTTTCCCGGTAATCCGTATTTGTT (site CGATTGACTAA),0.00602
21,CGATCAACATGGACCGGTTTTCCCGGTAATCCGTATTTGCT (site CGATCAACTAG),2.27
22,CGATCAACATGGACCGGTTTTCCCGGTAATCCGTATTTGCT (site CGATCACCTAG),0
23,CGATCAACATGGACCGGTTTTCCCGGTAATCCGTATTTGCT (site CGATCAGCTAG),0
24,CGATCAACATGGACCGGTTTTCCCGGTAATCCGTATTTGCT (site CGATCATCTAG),0
25,CGATCATCATGGACCGGTTTTCCCGGTAATCCGTATTTGAT (site CGATCATCTAA),0

# Reference: the supplement of paper PMC11208160
